pKi: −log10 of the molar value. In brackets after ≈: the same amount, converted by molar mass.
How the values were obtained:
[1] = target: human IRAK4 (Homo sapiens (Human), UniProt Q9NWZ3); test: IRAK4 enzymatic assay (Transcreener fluorescence polarization, ADP detection); type: biochemical; settings: recombinant full-length IRAK4; 125 uM ATP; 90 min
Description: Compounds were assayed for inhibition of human IRAK4 and IRAK1 catalytic activity using recombinant enzyme produced from insect cells. Full-length IRAK4 protein, carrying an N-terminal His6-Tag, was obtained from Life Technologies (Carlsbad, Calif., USA). The IRAK1 construct was produced internally and was comprised of IRAK1 residues Arg194 to Ser712, preceded by an NH2-terminal His6 tag and the coding sequence for glutathione-S-transferase.
Kinase activities were assayed using the Transcreener-Fluorecescence polarization platform (BelBrook Labs, Madison, Wis., USA) that measures amounts of the reaction product, ADP. […] Final IRAK4 assay conditions were 1.25 nM IRAK4; 125 uM ATP; 10 uM MgC2; 125 uM peptide in reaction buffer (25 mM HEPES (pH7.4); 2 mM Dithiothreitol; 0.015% Brij-35; and 0.5% dimethyl sulfoxide. The IRAK1 activity was optimized similarly, yielding final assay conditions of […] IRAK1; 62.5 uM ATP; 5 uM MgCl2, and 62.5 uM IRAK1 peptide in reaction buffer for 60 min.
Assays of compounds for kinase inhibition were performed using inhibitors serially-diluted in dimethyl sulfoxide, which was accomplished with a LabCyte Echo 555 liquid dispenser. 384 well assay plates spotted with compound received 4 ul of a 2× substrate (ATP+peptide) mix in reaction buffer, followed by 4 ul of 2× enzyme diluted in reaction buffer. Reactions were halted at 60 (IRAK1) or 90 (IRAK4) min by addition of 6 ul of detection buffer, containing EDTA ([…] final concentration), 0.95 ug of the ADP-binding antibody ADP2, ADP tracer (3 nM final concentration), and […] HEPES. Following a 1 hr incubation, fluorescence polarization of the ADP2-antibody::TRACER complex was read on a Tecan M1000 plate reader using a 635/20 excitation filter in combination with a 670/20 emission filter. Delta milli-P values were analyzed using Genedata software to fit dose-response curves and compute compound Ki values, using ATP Km values of 642 um and 83.2 uM for IRAK4 and IRAK1, respectively. Table 3 provides IRAK4 Ki values for representative compounds of the present invention.

[2] = Kinetic solubility assay; type: physicochemical; settings: for solubility kinetic at 24 h: PBS buffer with 2% DMSO, aqueous buffer, kinetic from dmso stock, PBS buffer pH 7.4, 2% DMSO, 24 hours shaking at room temperature, UHPLC-CLND; for Fold improvement in kinetic solubility: example compound versus its matched pair phenyl compound
Description: The kinetic solubility assay started with compound DMSO stock solutions. This assay used Millipore Multiscreen 96-well filter plates for the 24 hour equilibration shaking. Samples were prepared by adding 4 μL of the 10 mM compound DMSO stock solutions into 196 μL of PBS buffer pH 7.4 in the 96-well filter plates, yielding a compound concentration of 200 μM and 2% DMSO. The filter plate was sealed with aluminum sealing film and shaken at room temperature for 24 hours at 1000 rpm. When shaking has completed, the solutions were filtered into a clean 96-well plate utilizing a vacuum manifold. After filtration, some precipitate is often observed at the bottom of the filtration plate wells. Most of the precipitates appear to be crystalline under a polarizing light microscope. The filtrate samples were diluted by a factor of 2 using PBS pH7.4 buffer and then transferred to a 384-well plate for analysis by UHPLC-CLND (CLND: Chemiluminescence nitrogen detector). 5 μL of each sample was injected twice into the UHPLC-CLND for two repeat analysis.
Samples were detected and analyzed using UV 254 nm and CLND. UV 254 nm is used primarily to confirm the sample purity but in rare cases, is also used to quantify the concentration of compounds with no nitrogens, where additional work is done to create a compound specific calibration curve. The identification of CLND target peaks of each compound were confirmed by LCMS. Sample quantification was accomplished by CLND peak intensity, the calibration curve, and the number of nitrogen contained in the compound. One calibration curve of caffeine was used for solubility quantitative determination. A fresh calibration curve was created for every batch. The number of nitrogens in a compound used for this quantification was corrected for the actual configuration of the nitrogen in the compound.

[3] = Plasma protein binding using rapid equilibrium dialysis (RED); type: in vitro ADME; settings: pH 7.4, human plasma, 37° C., read-out: Human PPB (converted)
Description: Plasma protein binding was measured in duplicate using rapid equilibrium dialysis (RED) device ((Thermo Scientific Pierce) in a 96-well format. Briefly, 10.0 μL drug or control compounds (0.5 mM in DMSO) was mixed with 1000 μL plasma (pH adjusted to 7.4) from various species (BioreclamationIVT). Aliquots of 300 μL drug/plasma mixture were placed into the donor side chamber of a single-use RED plate, and 500 μL aliquots of PBS buffer were placed into the adjacent chamber as the receiver side. The plate was incubated on an orbital shaker at 400 rpm, at 37° C. for 4 hours. After completion of incubation, 50 μL aliquots from the PBS buffer side were mixed with 5 μL of blank plasma matrix, and 5 μL from the donor side (plasma) were mixed with 50 μL blank PBS buffer. All samples were then crashed with 200 μL acetonitrile (containing internal standard) to precipitate plasma proteins. The samples were centrifuged at 3750 rpm for 10 min to pellet the proteins. The supernatants were carefully transferred to a fresh 96-well plate, and diluted with an equivalent volume of water. The samples were then analyzed by LC-MS/MS (ABI 4000, ABI Sciex). Data acquisition and processing was performed with Analyst 1.6.1 and Multiquant 2.1. The percent of protein binding and fraction unbound (fu) in matrix was calculated from taking the ratio of responses (peak areas) on the receiver side (buffer) to those on the donor side (plasma). The ratios were normalized to the internal standard.

Chain of human IRAK4 (Q9NWZ3 whole entry, the tested form may be a part): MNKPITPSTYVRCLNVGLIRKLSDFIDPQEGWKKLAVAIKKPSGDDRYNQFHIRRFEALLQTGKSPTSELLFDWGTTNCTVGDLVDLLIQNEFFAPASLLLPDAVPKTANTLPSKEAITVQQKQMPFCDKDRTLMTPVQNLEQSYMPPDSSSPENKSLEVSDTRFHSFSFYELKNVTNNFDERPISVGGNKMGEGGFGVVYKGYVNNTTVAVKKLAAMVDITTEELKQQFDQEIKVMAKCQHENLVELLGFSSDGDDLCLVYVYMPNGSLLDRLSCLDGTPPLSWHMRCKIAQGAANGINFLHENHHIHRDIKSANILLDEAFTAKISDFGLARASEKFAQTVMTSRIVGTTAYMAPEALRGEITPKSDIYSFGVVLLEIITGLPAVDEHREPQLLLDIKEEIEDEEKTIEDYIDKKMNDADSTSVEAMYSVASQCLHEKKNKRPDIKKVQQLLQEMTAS

Structure (SMILES)	pKi [1]	solubility kinetic at 24 h [2]	Fold improvement in kinetic solubility [2]	fraction unbound at 4 h, 5 µM [3]
CC1(C)Cc2cc(NC(=O)c3cnn4cccnc34)c(N3CCN(CC(N)=O)CC3)nc2O1 [Example 6, N-[6-[4-(2-amino-2-oxo-ethyl)piperazin-1-yl]-2,2-dimethyl-3H-furo[2,3-b]pyridin-5-yl]pyrazolo[1,5-a]pyrimidine-3-carboxamide]	8.40	143 µM (≈ 64.4 µg/mL)	14.6	0.226
CC1(C)Cc2cc(NC(=O)c3cnn4cccnc34)c(N3CCN(CC(F)F)CC3)nc2O1 [Example 9, N-(6-(4-(2,2-Difluoroethyl)piperazin-1-yl)-2,2-dimethyl-2,3-dihydrofuro[2,3-b]pyridin-5-yl)pyrazolo[1,5-a]pyrimidine-3-carboxamide]	8.12	137 µM (≈ 62.7 µg/mL)	137.0	0.123

— patent US11434250B2, “Pyrazolo[1,5a]pyrimidine derivatives as IRAK4 modulators” (Genentech, Inc., priority 2017, dated 2022)
